Counter-ions that a name gives are not always drawn.
Each compound was assayed against T1, HGFR (Homo sapiens, UniProt P08581) (assay: HGFR continuous-coupled spectrophotometric assay (tyrosine kinase activity on Met-2 substrate peptide)). Settings: HGFR 50 nM, Met-2 peptide 0.5 mM, ATP 300 μM, 37° C., absorbance 340 nm; read-out: Ki.
T1 construct: purchased Upstate 14-526
Format: biochemical

T1 sequence (P08581 974-1390 limits assumed): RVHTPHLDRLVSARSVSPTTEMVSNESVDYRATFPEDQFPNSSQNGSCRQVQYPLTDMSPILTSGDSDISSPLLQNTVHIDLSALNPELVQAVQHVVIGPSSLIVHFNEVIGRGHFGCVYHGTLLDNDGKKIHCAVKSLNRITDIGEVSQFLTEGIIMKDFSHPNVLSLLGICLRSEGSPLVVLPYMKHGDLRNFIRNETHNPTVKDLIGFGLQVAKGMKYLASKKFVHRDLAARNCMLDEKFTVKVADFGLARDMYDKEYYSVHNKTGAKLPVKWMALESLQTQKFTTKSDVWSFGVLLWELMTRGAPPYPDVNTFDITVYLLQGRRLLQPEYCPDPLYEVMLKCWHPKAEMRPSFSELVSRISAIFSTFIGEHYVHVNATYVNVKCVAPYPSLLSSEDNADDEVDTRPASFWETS

Compound | Ki
CCN(CC)c1cnc2nnn(Cc3ccc4ncccc4c3)c2n1 [Example 160, N,N-diethyl-1-(quino-lin-6-yl-methyl)-1H-[1,2,3]tri-azolo[4,5-b]pyra-zin-6-amine] | 13 nM
CCCCOc1cnc2nnn(Cc3ccc4ncccc4c3)c2n1 [Example 161, 6-[(6-butoxy-1H-[1,2,3]tri-azolo[4,5-b]pyra-zin-1-yl)meth-yl]quinoline] | 14 nM
NC(=O)c1cnc2nnn(Cc3ccc4ncccc4c3)c2n1 [Example 162, 1-(quinolin-6-yl-methyl)-1H-[1,2,3]tri-azolo[4,5-b]pyra-zine-6-carbox-amide] | 17 nM
c1cnc2ccc(Cn3nnc4ncc(N5CCC5)nc43)cc2c1 [Example 165, 6-[(6-azetidin-1-yl-1H-[1,2,3]tri-azolo[4,5-b]pyra-zin-1-yl)meth-yl]quinoline] | 26 nM
CC(C)(O)CNc1cnc2nnn(Cc3cc4cccnc4cc3F)c2n1 [Example 172, 1-({1-[(7-fluoro-quinolin-6-yl)meth-yl]-1H-[1,2,3]tri-azolo[4,5-b]pyra-zin-6-yl}ami-no)-2-methyl-propan-2-ol] | 4 nM
C[C@H](O)CNc1cnc2nnn(Cc3cc4cccnc4cc3F)c2n1 [Example 173, (2)-1-({1-[(7-fluoro-quinolin-6-yl)meth-yl]-1H-[1,2,3]tri-azolo[4,5-b]pyra-zin-6-yl}ami-no)propan-2-ol] | 4 nM
CC(O)CNc1cnc2nnn(Cc3ccc4ncccc4c3)c2n1 (stereo not shown) [Example 174, 1-{[1-(quinolin-6-yl-methyl)-1H-[1,2,3]tri-azolo[4,5-b]pyra-zin-6-yl]ami-no}propan-2-ol] | 7 nM
NC(=O)C1CCN(c2cnc3nnn(Cc4ccc5ncccc5c4)c3n2)C1 (stereo not shown) [Example 176, 1-[1-(quinolin-6-yl-methyl)-1H-[1,2,3]tri-azolo[4,5-b]pyra-zin-6-yl]pyrro-lidine-3-carbox-amide] | 23 nM
NC(=O)C1CCN(c2cnc3nnn(Cc4ccc5ncccc5c4)c3n2)C1 (stereo not shown) [Example 177, 1-[1-(quinolin-6-yl-methyl)-1H-[1,2,3]tri-azolo[4,5-b]pyra-zin-6-yl]pyrro-lidine-3-carboxamide] | 29 nM
Cc1cnc2nnn(C(C)c3ccc4c(c3)OCCO4)c2n1 (stereo not shown) [Example 180, 1-[1-(3,4-Dihydro-benzo[1,4]dioxin-6-yl)-eth-yl]-6-meth-yl-1H-[1,2,3]tri-azolo[4,5-b]pyrazine] | 412 nM
CC(O)c1cnc2nnn(Cc3ccc4ncccc4c3)c2n1 (stereo not shown) [Example 184, 1-(3-Quinolin-6-yl-methyl-3H-[1,2,3]tri-azolo[4,5-b]pyra-zin-5-yl)-ethanol] | 231 nM
C[C@H](c1ccc2c(c1)OCCO2)n1nnc2ncc(-c3cnn(C)c3)nc21 [Example 185, 1-[(R)-1-(2,3-Dihydro-benzo[1,4]dioxin-6-yl)-eth-yl]-6-(1-meth-yl-1H-pyra-zol-4-yl)-1H-[1,2,3]tri-azolo[4,5-b]pyrazine] | 98 nM
NC(=O)C1(N)CCN(c2cnc3nnn(Cc4ccc5ncccc5c4)c3n2)C1 (stereo not shown) [Example 189] | 187 nM
COc1cnc2nnn(Cc3ccc4ncccc4c3)c2n1 [Example 193, 6-[(6-methoxy-1H-[1,2,3]tri-azolo[4,5-b]pyra-zin-1-yl)meth-yl]quinoline] | 108 nM
CC(C)(C)OC(=O)N[C@@H]1CCN(c2cnc3nnn(Cc4ccc5ncccc5c4)c3n2)C1 [Example 200, (R)-tert-butyl 1-(3-(quino-lin-6-yl-methyl)-3H-[1,2,3]tri-azolo[4,5-b]pyra-zin-5-yl)pyrrolidin-3-ylcarbamate] | 162 nM
CC(C)(C)OC(=O)N1CCN(c2cnc3nnn(Cc4ccc5ncccc5c4)c3n2)CC1 [Example 201, tert-butyl 4-(3-(quino-lin-6-yl-methyl)-3H-[1,2,3]tri-azolo[4,5-b]pyra-zin-5-yl)pipe-razine-1-carboxylate] | 182 nM
CC(C)(C)OC(=O)N[C@H]1CCCN(c2cnc3nnn(Cc4ccc5ncccc5c4)c3n2)C1 [Example 203, (S)-tert-butyl 1-(3-(quino-lin-6-yl-methyl)-3H-[1,2,3]tri-azolo[4,5-b]pyra-zin-5-yl)pipe-ridin-3-ylcarbamate] | 570 nM
CN(CCO)[C@@H]1CCN(c2cnc3nnn(Cc4ccc5ncccc5c4)c3n2)C1 [Example 204, 2-(methyl{(3R)-1-[1-(quino-lin-6-yl-methyl)-1H-[1,2,3]tri-azolo[4,5-b]pyra-zin-6-yl]pyrro-lidin-3-yl}ami-no)ethanol. TFA salt] | 37 nM

Now from value to compound:

Ki | Compound
31 nM | CN(C)CC1(O)CCN(c2cnc3nnn(Cc4ccc5ncccc5c4)c3n2)C1 (stereo not shown) [Example 158, 3-[(di-methylamino)meth-yl]-1-[1-(quino-lin-6-yl-methyl)-1H-[1,2,3]tri-azolo[4,5-b]pyra-zin-6-yl]pyrro-lidin-3-ol]
13 nM | CN(C)c1cnc2nnn(Cc3ccc4ncccc4c3)c2n1 [Example 159, N,N-dimethyl-1-(quino-lin-6-yl-methyl)-1H-[1,2,3]tri-azolo[4,5-b]pyra-zin-6-amine]
25 nM | N#Cc1cnc2nnn(Cc3ccc4ncccc4c3)c2n1 [Example 163, 1-(quinolin-6-yl-methyl)-1H-[1,2,3]tri-azolo[4,5-b]pyra-zine-6-carbonitrile]
14 nM | c1cnc2ccc(Cn3nnc4ncc(N5CCCC5)nc43)cc2c1 [Example 164, 6-[(6-pyrrolidin-1-yl-1H-[1,2,3]tri-azolo[4,5-b]pyra-zin-1-yl)meth-yl]quinoline]
4 nM | CC(C)Nc1cnc2nnn(Cc3ccc4ncccc4c3)c2n1 [Example 166, N-isopropyl-1-(quino-lin-6-yl-methyl)-1H-[1,2,3]tri-azolo[4,5-b]pyra-zin-6-amine]
13 nM | CC(C)(O)CNc1cnc2nnn(Cc3ccc4ncccc4c3)c2n1 [Example 167, 2-methyl-1-{[1-(quino-lin-6-ylmeth-yl)-1H-[1,2,3]tri-azolo[4,5-b]pyra-zin-6-yl]ami-no}propan-2-ol]
26 nM | COCCOc1cnc2nnn(Cc3ccc4ncccc4c3)c2n1 [Example 169, 6-{[6-(2-methoxy-ethoxy)-1H-[1,2,3]tri-azolo[4,5-b]pyra-zin-1-yl]meth-yl}quinoline]
10 nM | Fc1cc2ncccc2cc1Cn1nnc2ncc(N3CC[C@@H](N4CCOCC4)C3)nc21 [Example 171, 7-fluoro-6-({6-[(3R)-3-morpho-lin-4-yl-pyrrolidin-1-yl]-1H-[1,2,3]tri-azolo[4,5-b]pyra-zin-1-yl}meth-yl)quinoline]
8 nM | CC(O)CNc1cnc2nnn(Cc3ccc4ncccc4c3)c2n1 (stereo not shown) [Example 175, 1-{[1-(quinolin-6-yl-methyl)-1H-[1,2,3]tri-azolo[4,5-b]pyra-zin-6-yl]ami-no}propan-2-ol]
177 nM | CC(c1ccc2c(c1)OCCO2)n1nnc2ncc(N3CC[C@@H](N)C3)nc21 (stereo partly drawn) [Example 181, (R)-1-{3-[1-(2,3-Dihydro-benzo[1,4]dioxin-6-yl)-eth-yl]-3H-[1,2,3]triaz-olo[4,5-b]pyra-zin-5-yl}-pyrro-lidin-3-ylamine]
857 nM | CC(C)(O)c1cnc2nnn(Cc3ccc4ncccc4c3)c2n1 [Example 182, 2-(3-Quinolin-6-yl-methyl-3H-[1,2,3]tri-azolo[4,5-b]pyra-zin-5-yl)-pro-pan-2-ol]
837 nM | CC(N)c1cnc2nnn(Cc3ccc4ncccc4c3)c2n1 (stereo not shown) [Example 183, 1-(3-Quinolin-6-yl-methyl-3H-[1,2,3]tri-azolo[4,5-b]pyra-zin-5-yl)-ethylamine]
564 nM | NC(=O)[C@H]1CCCN1c1cnc2nnn(Cc3ccc4ncccc4c3)c2n1 [Example 186, 1-[1-(quinolin-6-yl-methyl)-1H-[1,2,3]tri-azolo[4,5-b]pyra-zin-6-yl]-D-pro-linamide]
103 nM | CC(C)(CNc1cnc2nnn(Cc3ccc4ncccc4c3)c2n1)NC(=O)OC(C)(C)C [Example 188, tert-butyl(1,1-di-methyl-2-{[1-(quino-lin-6-yl-methyl)-1H-[1,2,3]tri-azolo[4,5-b]pyra-zin-6-yl]ami-no}ethyl)carbamate]
647 nM | CC1(C)CN(c2cnc3nnn(Cc4ccc5ncccc5c4)c3n2)C(=O)N1 [Example 190, 4,4-dimethyl-1-[1-(quino-lin-6-yl-methyl)-1H-[1,2,3]tri-azolo[4,5-b]pyra-zin-6-yl]imida-zolidin-2-one]
142 nM | FC1CCN(C2CCN(c3cnc4nnn(Cc5ccc6ncccc6c5)c4n3)C2)CC1 (stereo not shown) [Example 191, 6-({6-[3-(4-fluoro-piperidin-1-yl)pyrro-lidin-1-yl]-1H-[1,2,3]tri-azolo[4,5-b]pyra-zin-1-yl}methyl)quinoline]
811 nM | O=C(O)c1cnc2nnn(Cc3ccc4ncccc4c3)c2n1 [Example 194, 1-(quinolin-6-yl-methyl)-1H-[1,2,3]tri-azolo[4,5-b]pyra-zine-6-carboxylic acid]
117 nM | CNC(=O)c1cnc2nnn(Cc3ccc4ncccc4c3)c2n1 [Example 195, N-methyl-1-(quino-lin-6-yl-methyl)-1H-[1,2,3]tri-azolo[4,5-b]pyra-zine-6-carboxamide]
174 nM | COC(=O)c1cnc2nnn(Cc3ccc4ncccc4c3)c2n1 [Example 196, methyl 1-(quino-lin-6-yl-methyl)-1H-[1,2,3]tri-azolo[4,5-b]pyra-zine-6-carboxylate]
31 nM | CC(=O)N[C@H]1CCN(c2cnc3nnn(Cc4ccc5ncccc5c4)c3n2)C1 [Example 198, N-{(3S)-1-[1-(quino-lin-6-yl-methyl)-1H-[1,2,3]tri-azolo[4,5-b]pyra-zin-6-yl]pyrro-lidin-3-yl}acetamide]
138 nM | C[C@H]1COCCN1c1cnc2nnn(Cc3ccc4ncccc4c3)c2n1 [Example 199, 6-({6-[(3S)-3-methyl-morpholin-4-yl]-1H-[123]tri-azolo[45-b]pyra-zin-1-yl}methyl)quinoline]
620 nM | CC(C)(C)OC(=O)N[C@@H]1CCCN(c2cnc3nnn(Cc4ccc5ncccc5c4)c3n2)C1 [Example 202, (R)-tert-butyl 1-(3-(quino-lin-6-yl-methyl)-3H-[1,2,3]tri-azolo[4,5-b]pyra-zin-5-yl)pipe-ridin-3-ylcarbamate]

From patent publication US7732604B2, “Triazolopyrazine derivatives” (Pfizer Inc., priority 2006, dated 2010)
